The subject of the assay is CD2F1 mice, L1210 leukemia ip, survival T/C. Briefly: NCI In Vivo Anticancer Drug Screen. Data for tumor model L1210 Leukemia (intraperitoneal) in CD2F1 (CDF1) mice. Particulars: higher = longer survival. The procedure: The antitumor activity of compounds was measured in mice bearing transplantable tumors. Survival or tumor size were measured and the results are expressed as the measurement made in the treated group (T) divided by the measurement made in the vehicle treated control group (C). The tumor model used in this assay is L1210 Leukemia (intraperitoneal) in CD2F1 (CDF1) mice

The mark [1] stands for this setting: endpoint: mean survival time, dose: 25.0 mg/kg/injection, schedule: Q04DX002 (ip), vehicle: saline with Tween-80.
[2] abbreviates: endpoint: mean survival time, dose: 50.0 mg/kg/injection, schedule: Q04DX002 (ip), vehicle: saline with Tween-80.
[3] abbreviates: endpoint: mean survival time, dose: 100.0 mg/kg/injection, schedule: Q04DX002 (ip), vehicle: saline with Tween-80.
Setting [4] is: endpoint: mean survival time, dose: 100.0 mg/kg/injection, schedule: Q04DX003 (ip), vehicle: saline with Tween-80.
The mark [5] stands for this setting: endpoint: mean survival time, dose: 200.0 mg/kg/injection, schedule: Q04DX003 (ip), vehicle: saline with Tween-80.
Setting [6] is: endpoint: mean survival time, dose: 400.0 mg/kg/injection, schedule: Q04DX003 (ip), vehicle: saline with Tween-80.
Where [7] appears, read: endpoint: mean survival time, dose: 100.0 mg/kg/injection, schedule: Q01DX009 (ip), vehicle: saline with Tween-80.
Where [8] appears, read: endpoint: mean survival time, dose: 200.0 mg/kg/injection, schedule: Q01DX009 (ip), vehicle: saline with Tween-80.

Molecules are shown by their SMILES. Values joined by “and” are separate entries in the source; they are usually repeats but may differ in a detail not shown here. Equal entries are not always repeated. Inconclusive results and toxic doses are left out.

The values below come from PubChem BioAssay AID256 (DTP/NCI, 2004).

In the case of `CC(CN1CC(=O)NC(=O)C1)N1CC(=O)NC(=O)C1` (centres undefined), the T/C was 112 % of control (endpoint: mean survival time, dose: 4.0 mg/kg/injection, schedule: Q01DX009 (ip), vehicle: saline); 123 % of control (endpoint: mean survival time, dose: 8.0 mg/kg/injection, schedule: Q01DX009 (ip), vehicle: saline); 158 % of control (endpoint: mean survival time, dose: 32.0 mg/kg/injection, schedule: Q01DX009 (ip), vehicle: saline); 117 % of control (endpoint: mean survival time, dose: 32.0 mg/kg/injection, schedule: Q04DX003 (ip), vehicle: saline); 96 % of control (endpoint: mean survival time, dose: 50.0 mg/kg/injection, schedule: Q01DX001 (ip), vehicle: saline); 124 % of control (endpoint: mean survival time, dose: 64.0 mg/kg/injection, schedule: Q01DX009 (ip), vehicle: saline). Further, the T/C is 104 % of control (endpoint: mean survival time, dose: 128.0 mg/kg/injection, schedule: Q01DX009 (ip), vehicle: saline); 196 % of control (endpoint: mean survival time, dose: 256.0 mg/kg/injection, schedule: Q04DX003 (ip), vehicle: saline); 251 % of control (endpoint: mean survival time, dose: 512.0 mg/kg/injection, schedule: Q04DX003 (ip), vehicle: saline); 169 % of control and 170 % of control (endpoint: median survival time, dose: 180.0 mg/kg/injection, schedule: Q04DX003 (ip), vehicle: Klucel (hydroxypropylcellulose) (HPC)); 236 % of control (endpoint: median survival time, dose: 300.0 mg/kg/injection, schedule: Q04DX003 (ip), vehicle: Klucel (hydroxypropylcellulose) (HPC)); 122 % of control (endpoint: median survival time, dose: 500.0 mg/kg/injection, schedule: Q04DX003 (ip), vehicle: Klucel (hydroxypropylcellulose) (HPC)).
On to `COc1ccc2[nH]c3c(C)c4cc[n+](C)cc4c(C)c3c2c1`, for which the T/C (endpoint: mean survival time, dose: 3.13 mg/kg/injection, schedule: Q01DX009 (ip), vehicle: saline) is 120 % of control; the T/C (endpoint: mean survival time, dose: 6.25 mg/kg/injection, schedule: Q01DX009 (ip), vehicle: saline with Tween-80) is 122 % of control; the T/C (endpoint: mean survival time, dose: 6.25 mg/kg/injection, schedule: Q01DX009 (ip), vehicle: saline) is 120 % of control; the T/C (endpoint: mean survival time, dose: 6.25 mg/kg/injection, schedule: Q04DX003 (ip), vehicle: saline with Tween-80) was 105 % of control; the T/C (endpoint: mean survival time, dose: 12.5 mg/kg/injection, schedule: Q01DX009 (ip), vehicle: saline with Tween-80) is 87 % of control; the T/C (endpoint: mean survival time, dose: 12.5 mg/kg/injection, schedule: Q01DX009 (ip), vehicle: saline) is 110 % of control. Also, the T/C (endpoint: mean survival time, dose: 12.5 mg/kg/injection, schedule: Q04DX003 (ip), vehicle: saline with Tween-80) is 108 % of control; the T/C (endpoint: mean survival time, dose: 25.0 mg/kg/injection, schedule: Q04DX003 (ip), vehicle: saline sonified) was 116 % of control; the T/C (endpoint: mean survival time, dose: 25.0 mg/kg/injection, schedule: Q04DX003 (ip), vehicle: saline with Tween-80) is 101 % of control; the T/C (endpoint: mean survival time, dose: 37.5 mg/kg/injection, schedule: Q04DX003 (ip), vehicle: saline sonified) is 86 % of control.
As to `CC(=O)Oc1ccc[nH]c1=O`, the T/C (endpoint: mean survival time, dose: 400.0 mg/kg/injection, schedule: Q01DX009 (ip), vehicle: saline) was 150 % of control and 156 % of control; the T/C (endpoint: mean survival time, dose: 600.0 mg/kg/injection, schedule: Q01DX009 (ip), vehicle: saline) was 100 % of control and 108 % of control; the T/C (endpoint: median survival time, dose: 16.7 mg/kg/injection, schedule: Q03HX027 (ip), vehicle: saline with Tween-80) was 103 % of control; the T/C (endpoint: median survival time, dose: 33.0 mg/kg/injection, schedule: Q03HX027 (ip), vehicle: saline with Tween-80) was 91 % of control and 102 % of control; the T/C (endpoint: median survival time, dose: 50.0 mg/kg/injection, schedule: Q01DX009 (ip), vehicle: saline with Tween-80) was 100 % of control and 101 % of control; the T/C (endpoint: median survival time, dose: 66.7 mg/kg/injection, schedule: Q03HX027 (ip), vehicle: saline with Tween-80) is 91 % of control and 93 % of control and 103 % of control. Further, the T/C was 100 % of control and 102 % of control and 103 % of control (endpoint: median survival time, dose: 100.0 mg/kg/injection, schedule: Q01DX009 (ip), vehicle: saline with Tween-80); 102 % of control and 103 % of control and 106 % of control (endpoint: median survival time, dose: 133.0 mg/kg/injection, schedule: Q03HX027 (ip), vehicle: saline with Tween-80); 103 % of control (2×) and 111 % of control (endpoint: median survival time, dose: 200.0 mg/kg/injection, schedule: Q01DX009 (ip), vehicle: saline with Tween-80); 185 % of control (endpoint: median survival time, dose: 266.0 mg/kg/injection, schedule: Q03HX027 (ip), vehicle: saline with Tween-80).
As to `CC1CCC2(OC1)OC1C(O)C3C4CCC5CC(OC6OC(CO)C(OC7OC(CO)C(O)C(OC8OCC(O)C(O)C8O)C7OC7OC(CO)C(O)C(OC8OC(CO)C(O)C(O)C8O)C7O)C(O)C6O)C(O)CC5(C)C4CCC3(C)C1C2C` (centres undefined), the T/C is, setting by setting: (endpoint: mean survival time, dose: 5.0 mg/kg/injection, schedule: Q01DX009 (ip), vehicle: saline) 92 % of control; (endpoint: mean survival time, dose: 6.25 mg/kg/injection, schedule: Q01DX001 (ip), vehicle: saline with Tween-80) 96 % of control; (endpoint: mean survival time, dose: 10.0 mg/kg/injection, schedule: Q01DX009 (ip), vehicle: saline) 93 % of control; (endpoint: mean survival time, dose: 12.5 mg/kg/injection, schedule: Q01DX001 (ip), vehicle: saline with Tween-80) 103 % of control; (endpoint: mean survival time, dose: 20.0 mg/kg/injection, schedule: Q01DX009 (ip), vehicle: saline) 96 % of control; (endpoint: mean survival time, dose: 25.0 mg/kg/injection, schedule: Q01DX001 (ip), vehicle: saline with Tween-80) 100 % of control. For the setting “endpoint: mean survival time, dose: 40.0 mg/kg/injection, schedule: Q01DX009 (ip), vehicle: saline”, the T/C is 102 % of control.
On to `O=C(COc1ccccc1-c1ccccc1)Nc1ccccc1-c1ccccc1`, for which the T/C was 98 % of control under setting [1], 98 % of control under setting [2] and 94 % of control under setting [3].
In the case of `O=C(N/N=C/c1ccc(O)cc1)c1ccccc1`, the T/C was 100 % of control (endpoint: mean survival time, dose: 100.0 mg/kg/injection, schedule: Q01DX001 (ip), vehicle: other); 100 % of control (endpoint: mean survival time, dose: 100.0 mg/kg/injection, schedule: Q01DX009 (ip), vehicle: Klucel (hydroxypropylcellulose) (HPC)); 94 % of control (endpoint: mean survival time, dose: 200.0 mg/kg/injection, schedule: Q01DX001 (ip), vehicle: other); 96 % of control (endpoint: mean survival time, dose: 200.0 mg/kg/injection, schedule: Q01DX009 (ip), vehicle: Klucel (hydroxypropylcellulose) (HPC)); 103 % of control (endpoint: mean survival time, dose: 400.0 mg/kg/injection, schedule: Q01DX001 (ip), vehicle: other); 94 % of control (endpoint: mean survival time, dose: 400.0 mg/kg/injection, schedule: Q01DX009 (ip), vehicle: Klucel (hydroxypropylcellulose) (HPC)).
On to `O=[N+]([O-])c1ccc2c(c1)sc1cc([N+](=O)[O-])c(Br)cc12`, for which the T/C is, setting by setting: under setting [3], 97 % of control; (endpoint: mean survival time, dose: 200.0 mg/kg/injection, schedule: Q04DX002 (ip), vehicle: saline with Tween-80) 94 % of control; (endpoint: mean survival time, dose: 400.0 mg/kg/injection, schedule: Q04DX002 (ip), vehicle: saline with Tween-80) 112 % of control.
Turning to `C(=N\N=C\c1ccccc1)/c1ccccc1`, the T/C (endpoint: mean survival time, dose: 100.0 mg/kg/injection, schedule: Q01DX001 (ip), vehicle: saline with Tween-80) is 100 % of control; the T/C under setting [4] is 103 % of control; the T/C (endpoint: mean survival time, dose: 200.0 mg/kg/injection, schedule: Q01DX001 (ip), vehicle: saline with Tween-80) was 100 % of control; the T/C under setting [5] was 91 % of control; the T/C (endpoint: mean survival time, dose: 400.0 mg/kg/injection, schedule: Q01DX001 (ip), vehicle: saline with Tween-80) is 97 % of control; the T/C under setting [6] is 96 % of control.
With `C=CC1CC2CC(C1C)C2(C)C` (centres undefined), the T/C was 96 % of control (endpoint: mean survival time, dose: 50.0 mg/kg/injection, schedule: Q01DX009 (ip), vehicle: saline with Tween-80); 100 % of control under setting [7]; 104 % of control under setting [8].
Consider `CCCCCCCCCCCC[N+]1([O-])CCOCC1`, for which the T/C runs as follows: under setting [1], 101 % of control; under setting [2], 97 % of control; under setting [3], 108 % of control.
For `C=CS(=O)(=O)c1ccc([N+](=O)[O-])cc1`, the T/C under setting [1] is 88 % of control.
For `S=C1NC(/C=C/c2ccccc2)Nc2ccccc21` (centres undefined), the T/C is, setting by setting: under setting [4], 91 % of control; under setting [5], 87 % of control.
On to `Cc1nc(-c2ccccc2)[nH]c(=O)c1CC(C)O` (centres undefined), for which the T/C is 91 % of control under setting [7]; 94 % of control under setting [4]; 96 % of control under setting [8]; 95 % of control under setting [5]; 92 % of control under setting [6].
In the case of `Cc1ccc2c(c1)CN(C13CC4CC(CC(C4)C1)C3)CO2`, the T/C by setting is: under setting [7], 96 % of control; under setting [8], 96 % of control; (endpoint: mean survival time, dose: 400.0 mg/kg/injection, schedule: Q01DX009 (ip), vehicle: saline with Tween-80) 97 % of control.
